Consider two molecules from US7205298B2, “Substituted triazine kinase inhibitors” (Janssen Pharmaceutica N.V., priority 2002, dated 2007).

In one series the target is T1, Protein Kinase A (Bos taurus, UniProt P00517).
T1 construct: purified from bovine heart; purchased Upstate Biotech 14-114; host or cells: bovine heart (tissue)
Briefly: Kinase selectivity assay Protein Kinase A. The format is biochemical, bovine. As to the method: (§1) Assays to test compound inhibition of other kinases were preformed using methods that measure the amount of phosphorylation of a biotinylated peptide substrate. Biotinylated peptide substrates were selected from the literature as appropriate for the enzyme being evaluated. The general procedure used to assay for kinase activity is as follows: a kinase reaction mix was prepared in 50 mM Tris-HCl pH=8, 10 mM MgCl2, 0.1 mM Na3VO4, 1 mM DTT, 10 μM ATP, 0.25–1 μM biotinylated peptide substrate, 0.2–0.8 μCuries per well ^33P-γ-ATP (2000–3000 Ci/mmol). Assay conditions vary slightly for each protein kinase, for example, insulin receptor kinase requires 10 mM MnCl2 for activity and Calmodulin-dependent protein kinase requires calmodulin and 2 mM CaCl2. The reaction mixture was dispensed into the wells of a streptavidin coated Flashplate and 1 μL test compound in 100% DMSO was added to a 100 μL reaction volume resulting in a final concentration of 1% DMSO in the reaction. Enzyme was diluted in 50 mM Tris-HCl pH=8.0, 0.1% BSA and added to each well. The reaction was incubated for one hour at 30° C. in the presence of a test compound. […] The plate was read on a scintillation counter to determine ^33P-γ-ATP incorporated into the immobilized peptide substrate. […] A maximum and minimum signal for the assay was determined on each plate. […]

For the next series, the target named is T2, PKC γ (Homo sapiens, UniProt P05129).
T2 construct: purchased BIOMOL SE-143; host or cells: insect cells
Briefly: Kinase selectivity assay PKC γ. The series is classed as biochemical. As for the experimental part: as §1

In another series the test system is A375 melanoma xenograft. Briefly: In vivo inhibition of tumor growth, tumor growth delay method. The note with it: for MDS to 2.0 g ± SEM (n): A375; for animals survived at day 57: group of six mice; for survival increase: vs control groups. As to the method: The in vivo effect of a compound on the growth of human tumor cells can be evaluated by implanting human tumor cells originating from a variety of different tumor types (such as A375 human melanoma cells) into the hindflank of athymic mice and administering a test compound to the mice.
Female nude mice were implanted subcutaneously with 1 mm^3 A375 melanoma fragments in the flank. Tumors were monitored twice weekly and then daily as the neoplasms reached the desired size range (about 75 mg). […] Estimated tumor weight was calculated using the formula (where w=width and l=length in mm of an A375 melanoma tumor): […]
All treatments were initiated on Day 1 and the study was terminated on Day 57.
The tumor growth delay (TGD) method was used in this study. In the TGD method, each animal was euthanized when its A375 neoplasm reached a size of 2.0 g. Mean Day of Survival (MDS) values were calculated for all groups. The treatment-effected mean “increase in survival” of various groups were compared to each other and to the mean survival times of mice receiving vehicle. The MDS values calculated for each group, based on the calculated day of death of each mouse, is given by the formula:
Time to exceed endpoint (observed)=number of days it takes for each tumor to grow past the endpoint (cut-off) size. Once the tumor reaches the cut-off size, the animal is euthanized. • D2=day animal is euthanized. • D1=last day of caliper measurement before tumor reaches the endpoint. • Wt2=tumor weight (mg) on D2 • Wt1=tumor weight (mg) on D1 • Endpoint weight=predetermined “cut-off” tumor size for the model being used.
Animals were weighed twice weekly during the study. Mice were examined frequently for clinical signs of any adverse, drug-related side effects. Acceptable toxicity for cancer drugs in mice is defined by the NCI as no mean group weight loss of over 20% during the test, and not more than one toxic death among ten treated animals.

As usually defined, the IC50 is the concentration that gives 50% inhibition. The low end stands for greater potency, the high end for weaker potency.

`OCCCNc1cncc(-c2ncnc(Nc3cccc(Cl)c3)n2)c1` [Compound 1, 3-((5-(4-((3-chlorophenyl)amino)-1,3,5-triazin-2-yl)-3-pyridinyl)amino)-1-propanol]: the IC50 against Protein Kinase A and against PKC γ was more than 100 µM each time.

At Protein Kinase A, `OCCCNc1cc(-c2ncnc(Nc3cccc(Cl)c3)n2)ccn1` [Compound 2, 3-((4-(4-((3-chlorophenyl)amino)-1,3,5-triazin-2-yl)-2-pyridinyl)amino)-1-propanol] returned an IC50 of more than 100 µM. For the same molecule, the figures for the “surviving longer than the PEG vehicle control and Growth Control groups” value with A375 melanoma xenograft (100 mg/kg), in the series on A375 melanoma xenograft (125 mg/kg) and in the series on A375 melanoma xenograft (150 mg/kg) were “about 8 days”, “about 14 days” and “about 12 days”, respectively. The “Max % BW loss (day)” value in the series on A375 melanoma xenograft (100 mg/kg i.p. qd×32) was −17.2% (33); in the series with A375 melanoma xenograft (125 mg/kg i.p. qd×32), −18.8% (29); in the series with A375 melanoma xenograft (150 mg/kg i.p. qd×32), −17.6% (33). Moreover, the “MDS to 2.0 g ± SEM (n)” value in the series on A375 melanoma xenograft (100 mg/kg i.p. qd×32, female nude mice) is 29.6 days; with A375 melanoma xenograft (100 mg/kg i.p. qd×32, female nude mice, listed as Cpd 2), 29.6 ± 3.1 (6) days; in the series on A375 melanoma xenograft (125 mg/kg i.p. qd×32, female nude mice) it was 35.2 days; in the series on A375 melanoma xenograft (125 mg/kg i.p. qd×32, female nude mice, listed as Cpd 2), 35.2 ± 3.6 (5) days; with A375 melanoma xenograft (150 mg/kg i.p. qd×32, female nude mice) it was 33.6 days; in the series on A375 melanoma xenograft (150 mg/kg i.p. qd×32, female nude mice, listed as Cpd 2) it was 33.6 ± 3.0 (4) days. Further, the “animals survived at day 57” value with A375 melanoma xenograft (100 mg/kg) is “None”; in the series on A375 melanoma xenograft (125 mg/kg) it was “One out of six”; with A375 melanoma xenograft (150 mg/kg), “One out of six”. Besides, the values for the survival increase result in the series with A375 melanoma xenograft (100 mg/kg), with A375 melanoma xenograft (125 mg/kg) and in the series on A375 melanoma xenograft (150 mg/kg) were “about 37%”, “about 63%” and “about 55%”, respectively. For the same molecule, the “NCI definition for acceptable toxicity of a cancer drug in mice” value in the series on A375 melanoma xenograft (150 and 125 mg/kg dose groups, no mean group weight loss over 20%, not more than one toxic death among ten) was “satisfied the NCI definition for acceptable toxicity”. The “efficacy against the A375 melanoma xenograft” value in the series on A375 melanoma xenograft (high doses of 150 and 125 mg/kg compared) is reported as “approximately equivalent efficacy”.
